Data reported in publication PMC4113456, “Atypical Signaling and Functional Desensitization Response of MAS Receptor to Peptide Ligands” (PLoS ONE, 2014).
Substitutions are numbered along the chain they refer to. Like-named read-outs stand apart in the source and are kept apart here. Each block holds one molecule with its values, some of them ahead of it. Non-standard residues stand in square brackets, D forms with d. Residues, ends and D or L forms follow the SMILES beside them. No end group written: not given here.

Legend:
MAS [1] = target: T1, MAS (Homo sapiens, UniProt P04201); assay: FLIPR calcium assay, induced myc-tagged WT MAS HEK293 stable cell line; format: cell-based; details: for EC50 / EC50, Calcium assay: induced cells
T1 construct: expressed in transfected cells
T1 sequence (P04201 1-325): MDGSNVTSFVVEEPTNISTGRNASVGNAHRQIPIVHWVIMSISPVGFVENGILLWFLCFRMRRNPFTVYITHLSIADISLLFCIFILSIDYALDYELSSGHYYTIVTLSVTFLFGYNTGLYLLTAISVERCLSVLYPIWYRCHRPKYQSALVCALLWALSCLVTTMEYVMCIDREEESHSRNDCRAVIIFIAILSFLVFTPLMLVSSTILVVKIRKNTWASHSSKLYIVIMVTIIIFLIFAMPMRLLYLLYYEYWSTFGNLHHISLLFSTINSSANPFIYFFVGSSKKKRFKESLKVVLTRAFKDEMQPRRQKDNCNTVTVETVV
Procedure: The assay was performed using FLIPR Calcium 5 assay kit (Molecular Devices, Sunnyvale, CA). For calcium measurements, cells at a density of 125,000 cells/well in 100 µl medium were seeded onto a 96-well clear bottom black cell culture plate that was pre-coated with poly-L-lysine. In the calcium assays the cell density of 125,000 cells/well was consistently maintained to minimize variability between independent experiments. The cells were seeded in induction media to induce MAS expression or in complete media for negative controls. The plate was maintained in a cell culture incubator for 26–28 h. The cells were then serum starved for 2 h by replacing the medium with 100 µl of serum free DMEM. In the case of pre-treatment with pan-inhibitor of G protein signaling, BIM-46187, the cells were initially serum starved for 1 h by replacing the medium with 50 µl of serum free DMEM. After 1 h, 50 µl of BIM-46187 was added to the cells to a final concentration of 25 µM and treated for another 1 h. Following serum starvation, 100 µl of calcium sensitive dye along with 2x (2.5 mM final concentration) probenecid (Life Technologies, Grand Island, NY) was added to the cells. During this step, AR-inverse agonist or BIM-46187 was also added at desired concentrations to the calcium dye preparation in case of experiments where cells were pre-treated with these inhibitors. The cells were maintained for one hour in the cell culture incubator. Following this, the 96-well plate containing cells loaded with calcium dye and a U-bottom 96-well plate containing ligands at 5x the desired final concentration in D-PBS (1.47 mM KH2PO4, 138 mM NaCl, 2.67 mM KCl, 8.1 mM Na2HPO4, pH 7.3) were allowed to equilibrate for 15 min on a FlexStation 3 instrument (Molecular Devices, Sunnyvale, CA) at 37°C. The plates were further equilibrated on the instrument for 5 min with the lids removed from the plates. The instrument was programmed in FLEX mode to add ligands (50 µl at 5x concentration) to the cells and to monitor the fluorescence before and after adding the ligands. In re-stimulation and antagonism assays the instrument is programmed to add 35 µl of first ligand followed by addition of the second ligand (35 µl) after 10 min. […] Therefore, when using 5x ligand stock the maximum AR-agonist concentration that could be tested was 10 µM.
In the calcium assays, the maximum response and minimum response values in relative fluorescence units (RFU) were extracted by subtracting the corresponding baseline value wherein baseline is defined as the average fluorescence of all time points before addition of ligand.
(§1) The kinetic parameter t1/2 (time taken to reach half of the maximum response) was determined using SoftMax Pro software supplied with the FlexStation 3 instrument (Molecular Devices, Sunnyvale, CA).
For re-stimulation assays, the data is expressed as the percentage of maximum agonist stimulation to allow for ready comparison between individual experiments. […] For all the assays, the EC50 and IC50 values were estimated by fitting the data to a three parameter dose response using GraphPad Prism software (GraphPad, La Jolla, CA).

MAS [2] = target: T1, MAS; parameters: method as in ref [10,11] (a number printed in a supplementary file, which may have a reference list of its own: not looked up in the article's list); details: ref [10,11], read-out: EC50 (Calcium assay); cited from earlier work
MAS [3] = system: MAS; parameters: method as in ref [2] (a number printed in a supplementary file, which may have a reference list of its own: not looked up in the article's list); details: Mouse MAS; ref [2]; cited from earlier work
MAS [4] = target: T1, MAS; assay: SRF-RE luciferase reporter assay (Gα12-dependent), induced WT MAS stable cell line; format: cell-based; details: induced cells
Procedure: The luciferase assay was performed using pGL4 luciferase reporter vectors and Dual-Glo Luciferase Assay System (Promega, Madison, WI). For this assay, the inducible MAS stable cells were initially plated in a 10 cm plate and left overnight in a cell culture incubator. The following day the cells were transfected with 5 µg of pGL4.34 plasmid containing serum response factor response element (SRF-RE)-firefly luciferase reporter gene and 1 µg of pGL4.73 plasmid containing renilla luciferase (as a transfection efficiency control). […] After 8 h of transfection and induction, the cells were seeded onto a 96-well clear bottom black cell culture plate (pre-coated with poly-L-lysine) at a density of 125,000 cells/well in 100 µl of minimal medium (with reduced serum of 0.5%). The plate was maintained in a cell culture incubator for 18–20 h. At this point 50 µl of media in the cells was replaced with 50 µl of serum free media containing ligands at 2x the desired concentration and incubated for an additional 6 h. Finally, the luciferase activity in the cells was measured according the protocol provided by the manufacturer. The luminescence measurements (RLU) in the cells were obtained on FlexStation 3 instrument.
For re-stimulation assays, the data is expressed as the percentage of maximum agonist stimulation to allow for ready comparison between individual experiments. […] In the luciferase assay, the luminescence measurements (RLU) are presented as a ratio of firefly to renilla luciferase activity. For all the assays, the EC50 and IC50 values were estimated by fitting the data to a three parameter dose response using GraphPad Prism software (GraphPad, La Jolla, CA).

MAS [5] = system: MAS; parameters: method as in ref [2] (a number printed in a supplementary file, which may have a reference list of its own: not looked up in the article's list); details: Mouse MAS; ref [2]; cited from earlier work; remark: listed apart in the source
MAS [6] = target: T1, MAS; assay: HTRF IP1 assay, induced myc-tagged WT MAS HEK293 stable cell line; format: cell-based; details: WT MAS, induced cells
untagged WT MAS = target: T2, untagged WT MAS (Homo sapiens, UniProt P04201); assay: Calcium assay, untagged WT MAS inducible HEK293 stable cell line; format: cell-based; details: up to 250 µM
T2 construct: expressed in transfected cells
T2 sequence (P04201 1-325): T1 sequence (P04201 1-325)
Procedure: The assay was performed using FLIPR Calcium 5 assay kit (Molecular Devices, Sunnyvale, CA). For calcium measurements, cells at a density of 125,000 cells/well in 100 µl medium were seeded onto a 96-well clear bottom black cell culture plate that was pre-coated with poly-L-lysine. In the calcium assays the cell density of 125,000 cells/well was consistently maintained to minimize variability between independent experiments. The cells were seeded in induction media to induce MAS expression or in complete media for negative controls. The plate was maintained in a cell culture incubator for 26–28 h. The cells were then serum starved for 2 h by replacing the medium with 100 µl of serum free DMEM. In the case of pre-treatment with pan-inhibitor of G protein signaling, BIM-46187, the cells were initially serum starved for 1 h by replacing the medium with 50 µl of serum free DMEM. After 1 h, 50 µl of BIM-46187 was added to the cells to a final concentration of 25 µM and treated for another 1 h. Following serum starvation, 100 µl of calcium sensitive dye along with 2x (2.5 mM final concentration) probenecid (Life Technologies, Grand Island, NY) was added to the cells. During this step, AR-inverse agonist or BIM-46187 was also added at desired concentrations to the calcium dye preparation in case of experiments where cells were pre-treated with these inhibitors. The cells were maintained for one hour in the cell culture incubator. Following this, the 96-well plate containing cells loaded with calcium dye and a U-bottom 96-well plate containing ligands at 5x the desired final concentration in D-PBS (1.47 mM KH2PO4, 138 mM NaCl, 2.67 mM KCl, 8.1 mM Na2HPO4, pH 7.3) were allowed to equilibrate for 15 min on a FlexStation 3 instrument (Molecular Devices, Sunnyvale, CA) at 37°C. The plates were further equilibrated on the instrument for 5 min with the lids removed from the plates. The instrument was programmed in FLEX mode to add ligands (50 µl at 5x concentration) to the cells and to monitor the fluorescence before and after adding the ligands. […]

MAS [7] = target: T1, MAS; parameters: method as in ref [3] (a number printed in a supplementary file, which may have a reference list of its own: not looked up in the article's list); details: ref [3]; cited from earlier work
MAS I191A mutant = target: T3, MAS I191A mutant (Homo sapiens, UniProt P04201, I191A); assay: Calcium assay, I191A MAS mutant stable cell line; format: cell-based
T3 construct: expressed in transfected cells
T3 sequence (P04201 1-325 I191A): T1 sequence (P04201 1-325) with I191A
Procedure: (§2) The assay was performed using FLIPR Calcium 5 assay kit (Molecular Devices, Sunnyvale, CA). For calcium measurements, cells at a density of 125,000 cells/well in 100 µl medium were seeded onto a 96-well clear bottom black cell culture plate that was pre-coated with poly-L-lysine. In the calcium assays the cell density of 125,000 cells/well was consistently maintained to minimize variability between independent experiments. The cells were seeded in induction media to induce MAS expression or in complete media for negative controls. The plate was maintained in a cell culture incubator for 26–28 h. The cells were then serum starved for 2 h by replacing the medium with 100 µl of serum free DMEM. In the case of pre-treatment with pan-inhibitor of G protein signaling, BIM-46187, the cells were initially serum starved for 1 h by replacing the medium with 50 µl of serum free DMEM. After 1 h, 50 µl of BIM-46187 was added to the cells to a final concentration of 25 µM and treated for another 1 h. Following serum starvation, 100 µl of calcium sensitive dye along with 2x (2.5 mM final concentration) probenecid (Life Technologies, Grand Island, NY) was added to the cells. During this step, AR-inverse agonist or BIM-46187 was also added at desired concentrations to the calcium dye preparation in case of experiments where cells were pre-treated with these inhibitors. The cells were maintained for one hour in the cell culture incubator. […] The instrument was programmed in FLEX mode to add ligands (50 µl at 5x concentration) to the cells and to monitor the fluorescence before and after adding the ligands. […]
as §1
(§3) For re-stimulation assays, the data is expressed as the percentage of maximum agonist stimulation to allow for ready comparison between individual experiments. […]

MAS T270A mutant = target: T4, MAS T270A mutant (Homo sapiens, UniProt P04201, T270A); assay: Calcium assay, T270A MAS mutant stable cell line; format: cell-based
T4 construct: expressed in transfected cells
T4 sequence (P04201 1-325 T270A): T1 sequence (P04201 1-325) with T270A
Procedure: as §2, §1, §3

MAS M244A mutant = target: T5, MAS M244A mutant (Homo sapiens, UniProt P04201, M244A); assay: Calcium assay, M244A MAS mutant stable cell line; format: cell-based
T5 construct: expressed in transfected cells
T5 sequence (P04201 1-325 M244A): T1 sequence (P04201 1-325) with M244A
Procedure: as §2, §1, §3

MAS F112A mutant = target: T6, MAS F112A mutant (Homo sapiens, UniProt P04201, F112A); assay: Calcium assay, F112A MAS mutant stable cell line; format: cell-based
T6 construct: expressed in transfected cells
T6 sequence (P04201 1-325 F112A): T1 sequence (P04201 1-325) with F112A
Procedure: as §2, §1, §3

MAS [8] = details: Mouse MAS, cited from earlier work
MAS [9] = system: MAS; parameters: method as in ref [12] (a number printed in a supplementary file, which may have a reference list of its own: not looked up in the article's list); details: Rat MAS; ref [12]; read-out: EC50 (Calcium assay); cited from earlier work
MAS [10] = system: MAS; parameters: method as in ref [8] (a number printed in a supplementary file, which may have a reference list of its own: not looked up in the article's list); details: Bovine MAS; ref [8]; cited from earlier work
[11] = target: T7, myc-tagged wild-type human MAS receptor (human) (UniProt P04201)
T7 sequence: T1 sequence (P04201 1-325)

[12] = target: T7, myc-tagged wild-type human MAS receptor (human); remark: listed apart in the source
[13] = WT MAS, t1/2 at 1000 µM (1 mM) ligand concentration
[14] = WT MAS, t1/2 at 100 µM ligand concentration

EC50 (MAS [1]; WT MAS): 12.2 ± 2 µM
Molecule: YLFQPQRF-NH2 [[Y^1]-NPFF]

Effect of pre-treatment on AR-agonist calcium signal (MAS [1]; 25 µM pre-treatment): complete loss of signal
Molecule: N[C@@H](CSSC[C@H](N)C(=O)N1CCn2cc(-c3ccccc3)nc2[C@@H]1CC1CCCCC1)C(=O)N1CCn2cc(-c3ccccc3)nc2[C@@H]1CC1CCCCC1 [BIM-46187]

EC50 (MAS [1]; WT MAS): 2.4 ± 0.3 µM
Molecule: CC(C)C[C@H](NC(=O)[C@H](N)Cc1ccc(O)cc1)C(=O)N(C)[C@@H](Cc1ccccc1)C(=O)N[C@@H](CCC(N)=O)C(=O)N1CCC[C@H]1C(=O)N[C@@H](CCC(N)=O)C(=O)N[C@@H](CCCN=C(N)N)C(=O)N[C@@H](Cc1ccccc1)C(N)=O [[^DY^1] [^NMeF^3]-NPFF] (HELM PEPTIDE1{[dY].L.[meF].Q.P.Q.R.F.[am]}$$$$V2.0)

EC50, Calcium assay (MAS [1]; WT MAS): cbd
t1/2, Calcium assay (MAS [1]; [13]): 10.4 ± 0.3 s
Molecule: CC[C@H](C)[C@H](NC(=O)[C@H](Cc1ccc(O)cc1)NC(=O)[C@@H](N)C(C)C)C(=O)N[C@@H](Cc1cnc[nH]1)C(=O)N1CCC[C@H]1C(=O)N[C@@H](Cc1ccccc1)C(=O)O [AngIV / Ang(3–8), Angiotensin IV]
Type (Arachidonic acid release assay) (MAS [7]): Agonist

EC50, Calcium assay (MAS [1]; WT MAS): cbd
Molecule: A779: Ang(1–7) analog, sequence DRVYIH^DA (DRVYIH[dA])
Remarks: effect on Ang(1-7) response (MAS [8]; ref [2,5]): Inhibits Ang(1-7) response
t1/2, Calcium assay (MAS [1]; [14]): cbd ^#

EC50 (MAS [1]; WT MAS): 193 ± 59 µM
t1/2, Calcium assay (MAS [1]; [14]): 18.2 ± 1.2 s
Molecule: CC[C@H](C)[C@H](NC(=O)[C@H](Cc1ccc(O)cc1)NC(=O)[C@@H](NC(=O)[C@H](CCCN=C(N)N)NC(=O)CNC)C(C)C)C(=O)N[C@@H](Cc1c[nH]cn1)C(=O)N1CCC[C@H]1C(N)=O [[Sar^1]-Ang(1–7)-amide]

EC50 (MAS [1]; WT MAS): 24.4 ± 1.5 µM
t1/2, Calcium assay (MAS [1]; [14]): 13.7 ± 0.9 s
Molecule: CC[C@H](C)[C@H](NC(=O)[C@H](Cc1ccc(O)cc1)NC(=O)[C@@H](N)C(C)C)C(=O)N[C@@H](Cc1c[nH]cn1)C(=O)N1CCC[C@H]1C(=O)N[C@@H](Cc1ccccc1)C(N)=O [AngIV-amide]

EC50, calcium assay, induced WT MAS stable HEK293 cells [11]: 3 µM
Molecule: NPFF-C (peptide)

EC50, calcium assay, induced WT MAS stable HEK293 cells [11]: 2.4 µM
B1: [^DY^1] [^NMeF^3]-NPFF (peptide)
peptide: YLFQPQRF
HELM: PEPTIDE1{[dY].L.[meF].Q.P.Q.R.F.[am]}$$$$V2.0; N-terminus assumed
SMILES: CC(C)C[C@H](NC(=O)[C@H](N)Cc1ccc(O)cc1)C(=O)N(C)[C@@H](Cc1ccccc1)C(=O)N[C@@H](CCC(N)=O)C(=O)N1CCC[C@H]1C(=O)N[C@@H](CCC(N)=O)C(=O)N[C@@H](CCCNC(=N)N)C(=O)N[C@@H](Cc1ccccc1)C(N)=O

EC50, calcium assay, induced WT MAS stable HEK293 cells [12]: 193 µM
B2: [Sar^1]-Ang(1–7)-amide (peptide)
peptide: GRVYIHP
HELM: PEPTIDE1{[Sar].R.V.Y.I.H.P.[am]}$$$$V2.0; N-terminus assumed
SMILES: CC[C@H](C)[C@H](NC(=O)[C@H](Cc1ccc(O)cc1)NC(=O)[C@@H](NC(=O)[C@H](CCCNC(=N)N)NC(=O)CNC)C(C)C)C(=O)N[C@@H](Cc1c[nH]cn1)C(=O)N1CCC[C@H]1C(N)=O

EC50, calcium assay, induced WT MAS stable HEK293 cells [11]: 12.2 µM
Molecule: YLFQPQRF-NH2 [[Y^1]-NPFF]

EC50, calcium assay, induced WT MAS stable HEK293 cells (response incompletely inhibited by AR-inverse agonist; non-specific response in un-induced cells at 1 mM) [12]: 24.4 µM
Molecule: VYIHPF-NH2 [AngIV-amide]

Second part, the molecule before the results:

Molecule: VYIHP [Ang(3–7)] [listing 1 of 2 here]
EC50, Calcium assay (MAS [1]; WT MAS): cbd

Molecule: P61 / CGEN-856: peptide agonist, sequence FLGYCIYLNRKRRGDPAFKRRLRD
EC50 (MAS [2]): 0.57 µM

Molecule: CC[C@H](C)[C@H](NC(=O)[C@H](Cc1ccc(O)cc1)NC(=O)[C@@H](NC(=O)[C@H](CCCNC(=N)N)NC(=O)[C@@H](N)CC(=O)O)C(C)C)C(=O)N[C@@H](Cc1c[nH]cn1)C(=O)N1CCC[C@H]1C(=O)O [Ang(1–7), angiotensin (1–7)]
Effect in aortic rings (MAS [3]): Vasodilator effect in aortic rings
EC50, Luciferase assay (MAS [4]): cbd
Type (Arachidonic acid release assay) (MAS [5]): Endogenous agonist
EC50, IP1 assay (MAS [6]): cbd
Calcium response (untagged WT MAS): no response
EC50, Calcium assay (MAS [1]; WT MAS): cbd
t1/2, Calcium assay (MAS [1]; [13]): 11.8 ± 0.6 s

Molecule: P33 / CGEN-857: peptide agonist, sequence SMCHRWSRAVLFPAAHRP
EC50 (MAS [2]): 1 µM

Molecule: CC(C)C[C@H](NC(=O)[C@@H](N)Cc1ccccc1)C(=O)N[C@@H](Cc1ccccc1)C(=O)N[C@@H](CCC(N)=O)C(=O)N1CCC[C@H]1C(=O)N[C@@H](CCC(N)=O)C(=O)N[C@@H](CCCN=C(N)N)C(=O)N[C@@H](Cc1ccccc1)C(N)=O [NPFF, Neuropeptide FF]
t1/2, Calcium assay (MAS I191A mutant): 9.0 ± 0.4 s
t1/2, Calcium assay (MAS T270A mutant): 9.3±2.0^#∧ s
t1/2, Calcium assay (MAS M244A mutant): cbd
t1/2, Calcium assay (MAS F112A mutant): 7.7±2.9^#∧ s
t1/2 (time taken to reach half of the maximal calcium response), Calcium assay (MAS [1]; WT MAS): 8.5 ± 0.3 s

Molecule: [^DPro^7]-Ang(1-7)
Remarks: effect on Ang(1-7) response (MAS [8]; ref [6]): Inhibits Ang(1-7) response

Molecule: CC[C@H](C)[C@H](NC(=O)[C@H](Cc1ccc(O)cc1)NC(=O)[C@@H](NC(=O)[C@H](CCCNC(=N)N)NC(=O)[C@@H](N)CC(=O)O)C(C)C)C(=O)N[C@@H](Cc1c[nH]cn1)C(=O)N1CCC[C@H]1C(N)=O [Ang(1–7)-amide]
EC50, Calcium assay (MAS [1]; WT MAS): cbd
t1/2, Calcium assay (MAS [1]; [13]): 11.4 ± 1.0 s

Molecule: MBP7: peptide agonist, sequence KAQLRRLS
EC50 (MAS [9]): 36.4 µM

Molecule: CCNC(=O)NS(=O)(=O)c1sc(CC(C)C)cc1-c1ccc(Cn2c(-c3ccccc3)nc(OC)c2C=O)cc1 [AVE 0991]
Remarks: Ang(1-7)-like effects (MAS [10]): Mimics Ang(1-7) effects

Molecule: VYIHP [Ang(3–7)] [listing 2 of 2 here]
t1/2, Calcium assay (MAS [1]; [13]): 15.0 ± 0.5 s

Molecule: RVYIHPF [AngIII]
EC50, calcium assay, induced WT MAS stable HEK293 cells (response incompletely inhibited by AR-inverse agonist; non-specific response in un-induced cells at 1 mM) [12]: 30.7 µM
